According to US8178506B2, “Oligomeric compounds and compositions for use in modulation of small non-coding RNAs” (Regulus Therapeutics Inc., priority 2003, dated 2012):
Entries after “also recorded” stand apart in the source; their conditions may differ. In the oligonucleotide strings, read from the 5' end, every base follows the letter of its sugar. An asterisk marks phosphorothioate; unmarked linkages are phosphodiester. Other units and linkages are bracketed, terminal groups are in braces. A string of capitals states the bases alone. e = 2'-O-(2-methoxyethyl) (MOE); [5mC] = 5-methylcytosine; d = 2'-deoxy (DNA)

Legend:
Assay type in all cases: cell-based, human
mir-15a pri-miRNA = mir-15a pri-miRNA expression in T47D cells (real-time RT-PCR); conditions: for mir-15a pri-miRNA expression % UTC: real-time RT-PCR; for levels of the mir-15a pri-miRNA molecule: 100 nM
Excerpt: The gapmer oligomeric compounds targeting the mir-15b and mir-15-a-1 mature miRNAs described above were also transfected into T47D cells according to standard procedures. In addition, uniform 2′-MOE and 2′-MOE gapmer oligomeric compounds targeting the mature mir-15a-1 and mir-15b miRNAs were also transfected into T47D cells, for analysis of their effects on mir-15a-1 and mir-15b pri-miRNA levels. The oligomeric compounds ISIS Number 327927 (SEQ ID NO: 345), a uniform 2′-MOE compound and ISIS Number 345391 (SEQ ID NO: 345), a 2′-MOE 5-10-7 gapmer compound, both target mir-15b. The oligomeric compounds ISIS Number 327951 (SEQ ID NO: 369), a uniform 2′-MOE compound, and ISIS Number 345411 (SEQ ID NO: 369), a 2′-MOE 5-10-7 gapmer compound, both target mir-15a-1. Oligomeric compounds ISIS Number 129686 ([…]; SEQ ID NO: 901), and ISIS Number 129691 ([…]; SEQ ID NO:902), both universal scrambled controls, as well as ISIS Number 116847 ([…]; SEQ ID NO: 844) targeting an unrelated gene, PTEN, were used as negative controls. ISIS Numbers 129686, 129691, and 116847 are phosphorothiated 2′-MOE 5-10-5 gapmers, and all cytosines are 5-methylcytosines. T47D cells (seeded in 12-well plates) were treated with these oligomeric compounds, and RNA was isolated from the treated cells by lysing in 1 mL TRIZOL™ (Invitrogen) and total RNA was prepared using the manufacturer's recommended protocols. To assess the effects of these compounds on expression of the mir-15a or mir-15b pri-miRNA molecules, real-time RT-PCR analysis was performed using either the primer/probe set specific for the mir-15a pri-miRNA molecule described above, or a primer probe set specific for the mir-15b pri-miRNA molecule: ISIS 339320 ([…]; SEQ ID NO: 903) was used as the forward primer for the mir-15b pri-miRNA, ISIS 339321 ([…] ACTGT; SEQ ID NO: 904) was used as the reverse primer for the mir-15b pri-miRNA, and ISIS 339322 ([…]; SEQ ID NO: 905) was used as the probe. Total RNA was quantified using RiboGreen™ RNA quantification reagent (Molecular Probes, Inc. Eugene, Oreg.), expression levels observed for each target were normalized to 5.8S rRNA, and values are expressed relative to the untreated control. Inhibition of expression of the mir15a or mir-15b pri-miRNA molecules upon treatment with these oligomeric compounds is was assessed and expressed as a percentage of RNA levels in untreated control cells.
Using the real-time RT-PCR methods described, the expression levels of the mir-15a pri-miRNA were compared in T47D cells treated with the nested series of uniform 2′-MOE oligomeric compounds, targeting and spanning the entire length of the mir-15a pri-miRNA. The region encompassing the mir-15a primary transcript (the complement of nucleotides 31603159 to 31603468 of GenBank Accession number NT—024524.13; AAATAATTATG […]) is incorporated herein as SEQ ID NO: 906. ISIS Number 356215 (SEQ ID NO: 879) targets a region flanking and immediately 5′ to the predicted 5′ Drosha cleavage site in the mir-15a pri-miRNA. ISIS Number 356218 (SEQ ID NO: 881) targets aregion in the loop of the mir-15a pri-miRNA. ISIS 356227 (SEQ ID NO: 883) targets a region flanking and immediately 3′ to the predicted 3′ Drosha cleavage site in the mir-15a pri-miRNA. Additionally, oligomeric compound ISIS 327951 (SEQ ID NO: 369), a uniform 2′-MOE compound targeting the mature mir-15a-1 miRNA, was tested for comparison. Oligomeric compounds ISIS 327901 (SEQ ID NO: 319) targeting the mature mir-143 miRNA; ISIS 129690, ([…]; SEQ ID NO: 907), a phosphorothioate 5-10-5 MOE gapmer used as a universal scrambled control; and ISIS 116847 ([…]; SEQ ID NO: 844), a uniform 5-10-52′-MOE gapmer targeting an unrelated gene, PTEN, were used as negative controls. Using the transfection methods previously described, T47D cells were treated with 100 nM of each of these oligomeric compounds. […]

HepG2 cells = assay: Insulin signaling assay in HepG2 cells, marker genes taken together; conditions: for expression of the IGFBP-1, PEPCK-c and follistatin marker genes: 100 nM
[1] = system: preadipocytes / differentiating adipocytes; assay: Adipocyte differentiation assay, markers taken together; conditions: differentiating adipocytes, % of UTC (Table 55)

116847 (antisense e[5mC]*eT*eG*e[5mC]*eT*dA*dG*d[5mC]*d[5mC]*dT*d[5mC]*dT*dG*dG*dA*eT*eT*eT*eG*eA) [compound 116847]
mir-15a pri-miRNA expression % UTC (mir-15a pri-miRNA): 132 % UTC

356231 (eT*eT*e[5mC]*eA*eG*eA*eA*eG*eA*eT*e[5mC]*eA*eG*eA*eT*e[5mC]*e[5mC]*eT*eT*eG) [compound 356231]
mir-15a pri-miRNA expression % UTC (mir-15a pri-miRNA): 811 % UTC

356232 (eA*eA*eA*eT*eA*eT*eA*eT*eT*eT*eT*e[5mC]*eT*eT*e[5mC]*eA*eG*eA*eA*eG) [compound 356232]
mir-15a pri-miRNA expression % UTC (mir-15a pri-miRNA): 631 % UTC

AACCGATTTCAAATGGTGCTAG (anti-miR; chemistry not fully specified) [ISIS 327913, uniform 2′-MOE PS; targets mir-29c]
expression of the IGFBP-1, PEPCK-c and follistatin marker genes (HepG2 cells; HepG2, 1 nM insulin): increased expression of the IGFBP-1, PEPCK-c and follistatin marker genes
expression of the IGFBP-1, PEPCK-c and follistatin marker genes (HepG2 cells; HepG2, basal (no insulin)): increased expression of the IGFBP-1, PEPCK-c and follistatin marker genes

CACAAATTCGGATCTACAGGGTA (anti-miR; chemistry not fully specified) [ISIS 327949, uniform 2′-MOE PS; targets mir-10a]
expression of the IGFBP-1 and follistatin marker genes (HepG2 cells; HepG2, basal (no insulin)): increased expression of the IGFBP-1 and follistatin marker genes

CCAAGTTCTGTCATGCACTGA (anti-miR; chemistry not fully specified) [ISIS 327964, uniform 2′-MOE PS; targets mir-152]
expression of the IGFBP-1, PEPCK-c and follistatin marker genes (HepG2 cells; HepG2, 1 nM insulin): increased expression of the IGFBP-1, PEPCK-c and follistatin marker genes

GAAAGAGACCGGTTCACTGTGA (anti-miR; chemistry not fully specified) [ISIS 327923, uniform 2′-MOE PS; targets mir-128b]
expression of the IGFBP-1, PEPCK-c and follistatin marker genes (HepG2 cells; HepG2, 1 nM insulin): increased expression of the IGFBP-1, PEPCK-c and follistatin marker genes

GGGGTATTTGACAAACTGACA (anti-miR; chemistry not fully specified) [ISIS 327961, uniform 2′-MOE PS; targets mir-223]
expression of the IGFBP-1, PEPCK-c and follistatin marker genes (HepG2 cells; HepG2, 1 nM insulin): increased expression of the IGFBP-1, PEPCK-c and follistatin marker genes
expression of the IGFBP-1 and follistatin marker genes (HepG2 cells; HepG2, basal (no insulin)): increased expression of the IGFBP-1 and follistatin marker genes

ISIS 341802: SEQ ID NO: 1806, targeting mir-191 (antisense AGCUGCUUUUGGGAUUCCGUUG; all 2'-MOE, all phosphorothioate, methylation of C and T or U not given here)
expression of the IGFBP-1 and follistatin marker genes (HepG2 cells; HepG2, basal (no insulin)): increased expression of the IGFBP-1 and follistatin marker genes

ISIS 341803: SEQ ID NO: 760, targeting mir-206 (antisense CCACACACTTCCTTACATTCCA; all 2'-MOE, all phosphorothioate, methylation of C not given here)
IGFBP-1 and PEPCK-c marker genes (HepG2 cells; HepG2, basal (no insulin)): increases in the IGFBP-1 and PEPCK-c marker genes

ISIS 356215: uniform 2′-MOE PS; SEQ ID NO: 879; region immediately 5′ to 5′ Drosha cleavage site of mir-15a pri-miRNA (antisense eT*eG*e[5mC]*eT*eA*e[5mC]*eT*eT*eT*eA*e[5mC]*eT*e[5mC]*e[5mC]*eA*eA*eG*eG*eT*eT) [uniform 2′-MOE PS; region immediately 5′ to 5′ Drosha cleavage site of mir-15a pri-miRNA]
levels of the mir-15a pri-miRNA molecule (mir-15a pri-miRNA): stimulate an increase in levels of the mir-15a pri-miRNA molecule; also recorded: stimulate the greatest increases in expression of the mir-15a pri-miRNA

ISIS 356216: uniform 2′-MOE PS; SEQ ID NO: 880; targets mir-15a pri-miRNA (antisense eG*e[5mC]*eA*e[5mC]*e[5mC]*eT*eT*eT*eT*e[5mC]*eA*eA*eA*eA*eT*e[5mC]*e[5mC]*eA*e[5mC]*eA) [uniform 2′-MOE PS; targets mir-15a pri-miRNA]
levels of the mir-15a pri-miRNA molecule (mir-15a pri-miRNA): stimulate an increase in levels of the mir-15a pri-miRNA molecule

ISIS 356218: uniform 2′-MOE PS; SEQ ID NO: 881; loop of the mir-15a pri-miRNA (antisense eT*eG*eG*e[5mC]*e[5mC]*eT*eG*e[5mC]*eA*e[5mC]*e[5mC]*eT*eT*eT*eT*e[5mC]*eA*eA*eA*eA) [uniform 2′-MOE PS; loop of the mir-15a pri-miRNA]
levels of the mir-15a pri-miRNA molecule (mir-15a pri-miRNA): stimulate an increase in levels of the mir-15a pri-miRNA molecule

ISIS 356221: uniform 2′-MOE PS; SEQ ID NO: 882; targets mir-15a pri-miRNA (antisense eA*eG*e[5mC]*eA*e[5mC]*eA*eA*eT*eA*eT*eG*eG*e[5mC]*e[5mC]*eT*eG*e[5mC]*eA*e[5mC]*e[5mC]) [uniform 2′-MOE PS; targets mir-15a pri-miRNA]
levels of the mir-15a pri-miRNA molecule (mir-15a pri-miRNA): stimulate an increase in levels of the mir-15a pri-miRNA molecule

ISIS 356227: uniform 2′-MOE PS; SEQ ID NO: 883; region immediately 3′ to 3′ Drosha cleavage site of mir-15a pri-miRNA (antisense eT*e[5mC]*e[5mC]*eT*eT*eG*eT*eA*eT*eT*eT*eT*eT*eG*eA*eG*eG*e[5mC]*eA*eG) [uniform 2′-MOE PS; region immediately 3′ to 3′ Drosha cleavage site of mir-15a pri-miRNA]
levels of the mir-15a pri-miRNA molecule (mir-15a pri-miRNA): stimulate an increase in levels of the mir-15a pri-miRNA molecule; also recorded: stimulate the greatest increases in expression of the mir-15a pri-miRNA

ISIS 356229: uniform 2′-MOE PS; SEQ ID NO: 884; targets mir-15a pri-miRNA (antisense eA*eG*eA*eT*e[5mC]*eA*eG*eA*eT*e[5mC]*e[5mC]*eT*eT*eG*eT*eA*eT*eT*eT*eT) [uniform 2′-MOE PS; targets mir-15a pri-miRNA]
levels of the mir-15a pri-miRNA molecule (mir-15a pri-miRNA): stimulate an increase in levels of the mir-15a pri-miRNA molecule

ISIS 356231: uniform 2′-MOE PS; targets mir-15a pri-miRNA (antisense eT*eT*e[5mC]*eA*eG*eA*eA*eG*eA*eT*e[5mC]*eA*eG*eA*eT*e[5mC]*e[5mC]*eT*eT*eG)
levels of the mir-15a pri-miRNA molecule (mir-15a pri-miRNA): stimulate an increase in levels of the mir-15a pri-miRNA molecule

ISIS 356232: uniform 2′-MOE PS; targets mir-15a pri-miRNA (antisense eA*eA*eA*eT*eA*eT*eA*eT*eT*eT*eT*e[5mC]*eT*eT*e[5mC]*eA*eG*eA*eA*eG)
levels of the mir-15a pri-miRNA molecule (mir-15a pri-miRNA): stimulate an increase in levels of the mir-15a pri-miRNA molecule

TGTAAACCATGATGTGCTGCTA (anti-miR; chemistry not fully specified) [ISIS 327927, uniform 2′-MOE PS; targets mir-15b]
five markers of adipocyte differentiation [1]: increase in all five markers of adipocyte differentiation
levels of the mir-15a pri-miRNA molecule (mir-15a pri-miRNA): stimulate an increase in levels of the mir-15a pri-miRNA molecule
